This passage reports IC50 results from patent US11685714B2, “Prodrugs of cytotoxic active agents having enzymatically cleavable groups” (BAYER PHARMA AKTIENGESELLSCHAFT, priority 2016, dated 2023).

SMILES strings stand for the structures. Where a name gives a salt, the structure may show the parent alone.

What all share (assay type): cell-based
Assay [1] relates to SK-HEP-1: human liver cell cancer line. Kind of assay: MTT assay on SK-HEP-1. The settings on record: SK-HEP1, 96 h, growth inhibition, 96 h incubation. The method, then: (§1) The analysis of the cytotoxic effects of the ADCs was carried out with various cell lines:
(§2) The cells were cultivated by the standard method as stated by the American Tissue Culture Collection (ATCC) or the Leibniz-lnstitut DSMZ-Deutsche Sammlung von Mikroorganismen und Zellkulturen GmbH (DSMZ) for the cell lines in question.
(§3) The cells were then incubated in an incubator at 37° C. and 5% carbon dioxide. […] To this end, the MTT reagent was incubated with the cells for 4 h, followed by lysis of the cells overnight by addition of the detergent. […] The measured data were used to calculate the ICo50 of the growth inhibition using the DRC (dose response curve). The proliferation of cells which were not treated with test substance but were otherwise identically treated was defined as the 100% figure.

For assay [2], the system named is KPL4: human breast cancer cell line. As to the kind of experiment: MTT assay on KPL4. The settings on record: 96 h incubation. As for the experimental part:
as §1, §2, §3
For orientation: Formazan colour is commonly taken as a measure of viable cells.

Assay [3] concerns NCI-H292: human mucoepidermoid lung carcinoma cells. Kind of assay: MTT assay on NCI-H292. The settings on record: 96 h incubation. The method, then: as §1, §2, §3
[4] abbreviates: NCI-H292, 96 h, growth inhibition.

For the compound `CC(C)(C)[C@H](c1cc(-c2cc(F)ccc2F)cn1Cc1ccccc1)N(CC[C@H](N)C(=O)NCCNC(=O)CNC(=O)CC(SC[C@H](N)C(=O)O)C(=O)O)C(=O)CO` (single isomer, unassigned) [Example M14], the IC50 came out at 94.3 nM in assay [1]; 177 nM in assay [2] (KPL4, 96 h, growth inhibition); 174 nM in assay [3] (setting [4]).
Consider `CC(C)(C)[C@H](c1cc(-c2cc(F)ccc2F)cn1Cc1ccccc1)N(CC[C@H](N)C(=O)NCCNC(=O)CC[C@H](N)C(=O)O)C(=O)CO` [Example M18, N-[2-({(2S)-2-Amino-4-[{(1R)-1-[1-benzyl-4-(2,5-difluorophenyl)-1H-pyrrol-2-yl]-2,2-dimethylpropyl}(glycoloyl)amino]butanoyl}amino)ethyl]-L-glutamine/trifluoroacetic acid (1:1)], for which the IC50 in assay [3] (setting [4]) amounted to 35.5 nM.
For `CC(C)(C)[C@H](c1cc(-c2cc(F)ccc2F)cn1Cc1ccccc1)N(CC[C@H](N)C(=O)NCCNC(=O)CNC(=O)C(CC(=O)O)SC[C@H](N)C(=O)O)C(=O)CO` (stereo partly drawn) [Example M27, 4-[(2-{[2-({(2S)-2-Amino-4-[{(1R)-1-[1-benzyl-4-(2,5-difluorophenyl)-1H-pyrrol-2-yl]-2,2-dimethylpropyl}(glycoloyl)amino]butanoyl}amino)ethyl]amino}-2-oxoethyl)amino]-3-{[(2R)-2-amino-2-carboxyethyl]sulphanyl}-4-oxobutanoic acid/trifluoroacetic acid (1:1)], the IC50 in assay [1] was 89 nM; in assay [3] (setting [4]) it was 276 nM.
As to `CC(C)(C)[C@H](c1cc(-c2cc(F)ccc2F)cn1Cc1ccccc1)N(CCCN)C(=O)CSC[C@H](NC(=O)CCOCCOCCOCCOCCNC(=O)CNC(=O)CC(SC[C@H](N)C(=O)O)C(=O)O)C(=O)O` (stereo partly drawn) [Example M20, (1R,4R,27R,33R)-1-Amino-32-(3-aminopropyl)-33-[1-benzyl-4-(2,5-difluorophenyl)-1H-pyrrol-2-yl]-34,34-dimethyl-6,9,25,31-tetraoxo-13,16,19,22-tetraoxa-3,29-dithia-7,10,26,32-tetraazapentatriacontane-1,4,27-tricarboxylic acid/trifluoroacetic acid (1:2)], the IC50 was 181 nM in assay [1]; 213 nM in assay [2] (KPL4, 96 h, growth inhibition); 149 nM in assay [3] (setting [4]).
In the case of `CC(C)(C)[C@H](c1cc(-c2cc(F)ccc2F)cn1Cc1ccccc1)N(CCCN)C(=O)CSC[C@H](NC(=O)CCC(=O)O)C(=O)O` [Example M12, 4-{[(1R)-2-({2-[(3-Aminopropyl){(1R)-1-[1-benzyl-4-(2,5-difluorophenyl)-1H-pyrrol-2-yl]-2,2-dimethylpropyl}amino]-2-oxoethyl}sulphanyl)-1-carboxyethyl]amino}-4-oxobutanoic acid/trifluoroacetic acid (1:1)], the IC50 amounted to 21.1 nM in assay [1] and 33 nM in assay [3] (setting [4]).
As to `CC(C)(C)[C@H](c1cc(-c2cc(F)ccc2F)cn1Cc1ccccc1)N(CC[C@H](N)C(=O)NCCNC(=O)CNC(=O)CC(SC[C@H](N)C(=O)O)C(=O)O)C(=O)CO` (single isomer, unassigned) [Example M13], the IC50 in assay [1] turned out to be 68.1 nM; in assay [2] (KPL4, 96 h, growth inhibition) it was 169 nM; in assay [3] (setting [4]), 152 nM.
`CC(C)(C)[C@H](c1cc(-c2cc(F)ccc2F)cn1Cc1ccccc1)N(CC[C@H](N)C(=O)NCCNC(=O)CNC(=O)CC1SC[C@@H](C(=O)O)NC1=O)C(=O)CO` (stereo partly drawn) [Example M08, (3R)-6-{(11 S,15R)-11-Amino-15-[1-benzyl-4-(2,5-difluorophenyl)-1H-pyrrol-2-yl]-14-glycoloyl-16,16-dimethyl-2,5,10-trioxo-3,6,9,14-tetraazaheptadec-1-yl}-5-oxothiomorpholine-3-carboxylic acid/trifluoroacetic acid (1:1)] registered an IC50 in assay [2] (KPL4, 96 h, growth inhibition) of 487 nM.
In turn, `CC(C)(C)[C@H](c1cc(-c2cc(F)ccc2F)cn1Cc1ccccc1)N(CC[C@H](N)C(=O)O)C(=O)CO` [Example M17, (2S)-2-Amino-4-[{(1R)-1-[1-benzyl-4-(2,5-difluorophenyl)-1H-pyrrol-2-yl]-2,2-dimethylpropyl}(glycoloyl)amino]butanoic acid hydrochloride (1:1)] registered an IC50 in assay [3] (setting [4]) of 7.35 nM.
Take `CC(C)(C)[C@H](c1cc(-c2cc(F)ccc2F)cn1Cc1ccccc1)N(CC[C@H](N)C(=O)NCCC(=O)N[C@@H](CCC(=O)O)C(=O)O)C(=O)CO` [Example M23, N-{(2S)-2-Amino-4-[{(1R)-1-[1-benzyl-4-(2,5-difluorophenyl)-1H-pyrrol-2-yl]-2,2-dimethylpropyl}(glycoloyl)amino]butanoyl}-beta-alanyl-L-glutamic acid/trifluoroacetic acid (1:1)]: the IC50 in assay [1] was 500 nM; in assay [2] (KPL4, 96 h, growth inhibition), 500 nM; in assay [3] (setting [4]) it was 500 nM.
In the case of `CC(C)(C)[C@H](c1cc(-c2cc(F)ccc2F)cn1Cc1ccccc1)N(CC[C@H](N)C(=O)NCCOCCN1C(=O)CC(SC[C@H](N)C(=O)O)C1=O)C(=O)CO` (stereo partly drawn) [Example M4, S-(1-{2-[2-({(2S)-2-Amino-4-[{(1R)-1-[1-benzyl-4-(2,5-difluorophenyl)-1H-pyrrol-2-yl]-2,2-dimethylpropyl}(glycoloyl)amino]butanoyl}amino)ethoxy]ethyl}-2,5-dioxopyrrolidin-3-yl)-L-cysteine/trifluoroacetic acid (1:1)], the IC50 in assay [1] amounted to 34.5 nM; in assay [2] (KPL4, 96 h, growth inhibition), 176 nM; in assay [3] (setting [4]) it was 44.3 nM.
For the compound `CC(C)(C)[C@H](c1cc(-c2cc(F)ccc2F)cn1Cc1ccccc1)N(CC[C@H](N)C(=O)NCCNC(=O)CSC[C@H](N)C(=O)O)C(=O)CO` [Example M7, S-(2-{[2-({(2S)-2-Amino-4-[{(1R)-1-[1-benzyl-4-(2,5-difluorophenyl)-1H-pyrrol-2-yl]-2,2-dimethylpropyl}(glycoloyl)amino]butanoyl}amino)ethyl]amino}-2-oxoethyl)-L-cysteine/trifluoroacetic acid (1:1)], the IC50 in assay [2] (KPL4, 96 h, growth inhibition) was 92.3 nM; in assay [3] (setting [4]) it was 21.2 nM.
Consider `CC(C)(C)[C@H](c1cc(-c2cc(F)ccc2F)cn1Cc1ccccc1)N(CC[C@H](N)C(=O)NCCNC(=O)CNC(=O)C(CC(=O)O)SC[C@H](N)C(=O)O)C(=O)CO` (single isomer, unassigned) [Example M15], for which the IC50 in assay [1] was determined as 49.8 nM; in assay [2] (KPL4, 96 h, growth inhibition) it was 169 nM; in assay [3] (setting [4]), 133 nM.
In the case of `CC(C)(C)[C@H](c1cc(-c2cc(F)ccc2F)cn1Cc1ccccc1)N(CC[C@H](N)C(=O)NCCC(=O)N[C@H](CCC(=O)O)C(=O)O)C(=O)CO` [Example M24, N-{(2S)-2-Amino-4-[{(1R)-1-[1-benzyl-4-(2,5-difluorophenyl)-1H-pyrrol-2-yl]-2,2-dimethylpropyl}(glycoloyl)amino]butanoyl}-beta-alanyl-D-glutamic acid/trifluoroacetic acid (1:1)], the IC50 came to 57.3 nM in assay [1]; 500 nM in assay [2] (KPL4, 96 h, growth inhibition); 167 nM in assay [3] (setting [4]).
As for `CC(C)(C)[C@H](c1cc(-c2cc(F)ccc2F)cn1Cc1ccccc1)N(CC[C@H](N)C(=O)NCCC(=O)NCCCC[C@H](N)C(=O)O)C(=O)CO` [Example M19, N^6—(N-{(2S)-2-Amino-4-[{(1R)-1-[1-benzyl-4-(2,5-difluorophenyl)-1H-pyrrol-2-yl]-2,2-dimethylpropyl}(glycoloyl)amino]butanoyl}-beta-alanyl)-L-lysine/trifluoroacetic acid (1:1)], the IC50 in assay [3] (setting [4]) is 121 nM.
Consider `CC(C)(C)[C@H](c1cc(-c2cc(F)ccc2F)cn1Cc1ccccc1)N(CCCN)C(=O)CSC[C@H](N)C(=O)O` [Example M11, S-{2-[(3-Aminopropyl){(1R)-1-[1-benzyl-4-(2,5-difluorophenyl)-1H-pyrrol-2-yl]-2,2-dimethylpropyl}amino]-2-oxoethyl}-L-cysteine/trifluoroacetic acid (1:2)], for which the IC50 in assay [1] was found to be 0.189 nM; in assay [3] (setting [4]), 0.0432 nM.
Regarding `CC(C)(C)[C@H](c1cc(-c2cc(F)ccc2F)cn1Cc1ccccc1)N(CCCN)C(=O)CO` [Example M9, N-(3-Aminopropyl)-N-{(1R)-1-[1-benzyl-4-(2,5-difluorophenyl)-1H-pyrrol-2-yl]-2,2-dimethylpropyl}-2-hydroxyacetamide], the IC50 in assay [2] (KPL4, growth inhibition) is 0.514 nM; in assay [3] (NCI-H292, growth inhibition), 0.27 nM.
With `CC(C)(C)[C@H](c1cc(-c2cc(F)ccc2F)cn1Cc1ccccc1)N(CC[C@H](N)C(=O)NCCNC(=O)CN1C(=O)CC(SC[C@H](N)C(=O)O)C1=O)C(=O)CO` (stereo partly drawn) [Example M1, S-[1-(2-{[2-({(2S)-2-Amino-4-[{(1R)-1-[1-benzyl-4-(2,5-difluorophenyl)-1H-pyrrol-2-yl]-2,2-dimethylpropyl}(glycoloyl)amino]butanoyl}amino)ethyl]amino}-2-oxoethyl)-2,5-dioxopyrrolidin-3-yl]-L-cysteine/trifluoroacetic acid (1:1)], the IC50 was 500 nM in assay [2] (KPL4, 96 h, growth inhibition) and 500 nM in assay [3] (setting [4]).

The term IC50 denotes the concentration that inhibits the measured activity by half. High values mean lower potency, low ones higher potency.
